Assay results from BindingDB's records for doi:10.1021/jm00039a008 (Albany Molecular Research, 1994).
Structures can show the parent of a compound that is named as a salt.

Experiments:
[1] = Affinity at sigma-1 site by inhibition of [3H](+)-pentazocine (PENT) binding in guinea pig brain
[2] = Binding affinity was measured as selectivity for sigma-1 site over muscarinic (M1) receptor in rat

Compound | Ki [1] [nM] | Ki [2] [nM]
O=C(OCCCN1CCC(c2ccccc2)CC1)C1(c2ccc([N+](=O)[O-])cc2)CCCC1 [1-(4-Nitro-phenyl)-cyclopentanecarboxylic acid 3-(4-phenyl-piperidin-1-yl)-propyl ester; hydrochloride] | 0.27 | –
O=C(OCCCN1CCC(c2ccccc2)CC1)C1(c2ccc(Cl)cc2)CCCC1 [1-(4-Chloro-phenyl)-cyclopentanecarboxylic acid 3-(4-phenyl-piperidin-1-yl)-propyl ester; hydrochloride] | 1.5 | –
O=C(OCCCCCCN1CCC(c2ccccc2)CC1)C1(c2ccccc2)CCCC1 [1-Phenyl-cyclopentanecarboxylic acid 6-(4-phenyl-piperidin-1-yl)-hexyl ester; hydrochloride] | 1.2 | –
COc1ccc(C2(C(=O)OCCCN3CCC(c4ccccc4)CC3)CCCC2)cc1 [1-(4-Methoxy-phenyl)-cyclopentanecarboxylic acid 3-(4-phenyl-piperidin-1-yl)-propyl ester; hydrochloride] | 0.65 | –
N#Cc1ccc(C2(C(=O)OCCN3CCC(c4ccccc4)CC3)CCCC2)cc1 [1-(4-Cyano-phenyl)-cyclopentanecarboxylic acid 2-(4-phenyl-piperidin-1-yl)-ethyl ester; hydrochloride] | 1.3 | –
O=C(OCCN1CCN(c2ccccc2)CC1)C1(c2ccc(I)cc2)CCCC1 [1-(4-Iodo-phenyl)-cyclopentanecarboxylic acid 2-(4-phenyl-piperazin-1-yl)-ethyl ester; hydrochloride] | 23 | –
COc1ccc2c(c1)[C@]13CCCC[C@@H]1[C@H](C2)N(C)CC3 [DEXTROMETHORPHAN] | – | 5070
O=C(OCCN1CCN(c2ccccc2)CC1)C1(c2ccc([N+](=O)[O-])cc2)CCCC1 [1-(4-Nitro-phenyl)-cyclopentanecarboxylic acid 2-(4-phenyl-piperazin-1-yl)-ethyl ester; hydrochloride] | 2.8 | –
O=C(OCCCN1CCC(c2ccccc2)CC1)C1(c2ccc(I)cc2)CCCC1 [1-(4-Iodo-phenyl)-cyclopentanecarboxylic acid 3-(4-phenyl-piperidin-1-yl)-propyl ester; hydrochloride] | 0.88 | –
O=C(OCCN1CCC(c2ccccc2)CC1)C1(c2ccccc2)CCCC1 [1-Phenyl-cyclopentanecarboxylic acid 2-(4-phenyl-piperidin-1-yl)-ethyl ester; hydrochloride] | 4 | –
O=C(OCCN1CCN(c2ccccc2)CC1)C1(c2ccc(Cl)cc2)CCCC1 [1-(4-Chloro-phenyl)-cyclopentanecarboxylic acid 2-(4-phenyl-piperazin-1-yl)-ethyl ester; hydrochloride] | 77 | –
O=C(OCCN1CCC(c2ccccc2)CC1)C1(c2ccc(I)cc2)CCCC1 [1-(4-Iodo-phenyl)-cyclopentanecarboxylic acid 2-(4-phenyl-piperidin-1-yl)-ethyl ester; hydrochloride] | 1.4 | –
O=C(OCCN1CCN(c2ccccc2)CC1)C1(c2ccccc2)CCCC1 [1-Phenyl-cyclopentanecarboxylic acid 2-(4-phenyl-piperazin-1-yl)-ethyl ester; hydrochloride] | 63 | –
O=C(OCCCCN1CCC(c2ccccc2)CC1)C1(c2ccccc2)CCCC1 [1-Phenyl-cyclopentanecarboxylic acid 4-(4-phenyl-piperidin-1-yl)-butyl ester; hydrochloride] | 0.51 | –
O=C(OCCN1CCC(c2ccccc2)CC1)C1(c2ccc(Cl)cc2)CCCC1 [1-(4-Chloro-phenyl)-cyclopentanecarboxylic acid 2-(4-phenyl-piperidin-1-yl)-ethyl ester; hydrochloride] | 1.3 | –
COc1ccc(C2(C(=O)OCCN3CCC(c4ccccc4)CC3)CCCC2)cc1 [1-(4-Methoxy-phenyl)-cyclopentanecarboxylic acid 2-(4-phenyl-piperidin-1-yl)-ethyl ester; hydrochloride] | 1 | –
